In this data set the test system is L-cells. The format is cell-based, murine. The following applies: spontaneous lysis and cell recovery in presence of peptide alone (data not shown). The source says: Identification of the immunodominant epitope recognized by the line Pol a: To identify the epitope(s) contained in this area, we used 21 overlapping 15-amino acid peptides designated HP134 to HP154 covering residues 168 to 316. […] HP138 ([…]) corresponds to residues 205-219 of the HTLV/IIIB strain sequence (32). […] The line Pol a was Class I MHC-restricted because it killed HP 138-pulsed, Class II MHC molecule-negative H-2^k L-cell fibroblasts, but not 3T3 fibroblasts (H-2^d) or EL4 thymoma cells (H-2^b).

With `CC[C@H](C)[C@H](NC(=O)[C@H](CCCCN)NC(=O)[C@H](CO)NC(=O)[C@@H](NC(=O)[C@H](CCCCN)NC(=O)CNC(=O)[C@H](CCC(=O)O)NC(=O)[C@H](CCCCN)NC(=O)[C@H](CCC(=O)O)NC(=O)[C@H](CCSC)NC(=O)[C@H](CCC(=O)O)NC(=O)[C@@H](NC(=O)[C@@H](N)CS)[C@@H](C)O)[C@@H](C)CC)C(=O)NCC(=O)N1CCC[C@H]1C(=O)O` [HP138], the “toxicity of the peptide by itself” value is given as “not toxic by itself”.

The record behind these values is US5336758A, “Peptides stimulating cytotoxic T cells immune to HIV RT” (The United States of America as represented by the …, priority 1990, dated 1994).
